The values below come from ChEMBL document CHEMBL5247626, “In vitro and in vivo biological evaluation of newly synthesized multi-target 20(R)-panaxadiol derivatives for treating Alzheimer's disease” (Eur J Med Chem, 2022).

Molecules are shown by their SMILES. Active and inactive are the calls of the source. No cut-off for these calls is given here.

Data set [1] addresses Amyloid-beta precursor protein (Homo sapiens) (UniProt P05067). Nature of the data set: Disaggregation of amyloid beta (25 to 35) (unknown origin) self aggregation at 15 uM incubated for 24 hrs by transmission electron microscopy analysis.
Data set [2] can be described thus: Permeability of the compound incubated for 4 hrs by PAMPA-BBB assay based HPLC analysis. (In PAMPA a lipid-coated filter parts donor from acceptor wells.)
Data set [3] has as its system PC-12. Nature of the data set: Neuroprotective activity against rat PC12 cells assessed as reduction in amyloid beta (25 to 35)-induced cytotoxicity at 15 uM incubated for 4 hrs followed by amyloid beta (25 to 35) treatment for 24 hrs by MTT assay relative to control. The conditions noted are these: time 28 hrs. The data set is classed as functional. Also noted: scale not given: the % may be the effect or the level left. (Tetrazolium dyes change colour on reduction, which living cells bring about.)

The test system of data set [4] is PC-12. Description: Neuroprotective activity against amyloid beta (25 to 35)-induced rat PC12 cells assessed as decrease in total tau protein expression level at 15 uM preincubated for 30 mins followed by amyloid beta (25 to 35) addition and measured after 24 hrs by western blot assay. The data set is classed as functional, cell-based. The conditions noted are these: time 24.5 hrs. On the technique in general: A western blot detects proteins with antibodies after separation by electrophoresis.

The test system of data set [5] is PC-12. Description: Neuroprotective activity against amyloid beta (25 to 35)-induced rat PC12 cells assessed as decrease in intracellular ROS level at 7.5 uM incubated for 24 hrs by DCFH-DA staining based flow cytometry assay. The data set is classed as functional, cell-based.
Data set [6] has as its system PC-12. Nature of the data set: Neuroprotective activity against amyloid beta (25 to 35)-induced rat PC12 cells assessed as reduction in amyloid beta (25 to 35)-induced apoptosis rate at 15 uM incubated for 15 mins by Annexin V-FITC/PI staining based flow cytometric analysis (reference value: 2.9%). Format: functional. Also noted: scale not given: the % may be the effect or the level left. The settings on record: 0.25 h.

Data set [7] relates to PC-12. Nature of the data set: Neuroprotective activity against amyloid beta (25 to 35)-induced rat PC12 cells assessed as decrease in tau hyperphosphorylation at Thr181 at 15 uM preincubated for 30 mins followed by amyloid beta (25 to 35) addition and measured after 24 hrs by western blot assay. Format: functional, cell-based. The settings on record: time 24.5 hrs.
Data set [8] has as its system Mus musculus. Nature of the data set: Antialzheimer activity against amyloid beta (25 to 35)-induced spatial memory deficit ICR mouse model assessed as increase in distance travelled in target quadrant at 1.3 mg/kg,po observed at 16 to 20 days of administration by morris water maze test. Format: functional, organism-based. The conditions noted are these: time 16-20 day.

Data set [9] has as its system Mus musculus. Description: Antialzheimer activity against amyloid beta (25 to 35)-induced cognitive deficit ICR mouse model assessed as increase in preferential index at 1.3 mg/kg,po observed after 1 hr of administration by novel object recognition test. Format: functional, organism-based.
Data set [10] has as its system Mus musculus. Nature of the data set: Antialzheimer activity against amyloid beta (25 to 35)-induced cognitive deficit ICR mouse model assessed as attenuation of behavioral deficit at 1.3 mg/kg,po observed after 12 to 15 days of administration by Y maze test. The data set is classed as functional, organism-based. The settings on record: time 12-15 day.
Data set [11] has as its system Mus musculus. Description: Antialzheimer activity against amyloid beta (25 to 35)-induced cognitive deficit ICR mouse model assessed as increase in preferential index at 1.3 mg/kg,po observed after 24 hrs of administration by novel object recognition test. The data set is classed as functional, organism-based.
Data set [12] has as its system Mus musculus. Description: Antialzheimer activity against amyloid beta (25 to 35)-induced spatial memory deficit ICR mouse model assessed as increase in exploration time spent at 1.3 mg/kg,po observed at 16 to 20 days of administration by morris water maze test. The data set is classed as functional, organism-based. The settings on record: time 16-20 day.
For data set [13], the system named is Mus musculus. Description: Antialzheimer activity against amyloid beta (25 to 35)-induced cognitive deficit ICR mouse model assessed as increase in discrimination index at 1.3 mg/kg,po observed after 24 hrs of administration by novel object recognition test. Format: functional, organism-based.
For data set [14], the system named is Mus musculus. Nature of the data set: Antialzheimer activity against amyloid beta (25 to 35)-induced cognitive deficit ICR mouse model assessed as effect on total number of arm enteries at 1.3 mg/kg,po observed after 11 days of administration by Y maze test. Format: functional, organism-based. The settings on record: time 11.0 day.
Data set [15] has as its system Mus musculus. Description: Antialzheimer activity against amyloid beta (25 to 35)-induced cognitive deficit ICR mouse model assessed as increase in discrimination index at 1.3 mg/kg,po observed after 1 hr of administration by novel object recognition test. The data set is classed as functional, organism-based.

Sequence of Amyloid-beta precursor protein (Homo sapiens) (P05067 whole entry): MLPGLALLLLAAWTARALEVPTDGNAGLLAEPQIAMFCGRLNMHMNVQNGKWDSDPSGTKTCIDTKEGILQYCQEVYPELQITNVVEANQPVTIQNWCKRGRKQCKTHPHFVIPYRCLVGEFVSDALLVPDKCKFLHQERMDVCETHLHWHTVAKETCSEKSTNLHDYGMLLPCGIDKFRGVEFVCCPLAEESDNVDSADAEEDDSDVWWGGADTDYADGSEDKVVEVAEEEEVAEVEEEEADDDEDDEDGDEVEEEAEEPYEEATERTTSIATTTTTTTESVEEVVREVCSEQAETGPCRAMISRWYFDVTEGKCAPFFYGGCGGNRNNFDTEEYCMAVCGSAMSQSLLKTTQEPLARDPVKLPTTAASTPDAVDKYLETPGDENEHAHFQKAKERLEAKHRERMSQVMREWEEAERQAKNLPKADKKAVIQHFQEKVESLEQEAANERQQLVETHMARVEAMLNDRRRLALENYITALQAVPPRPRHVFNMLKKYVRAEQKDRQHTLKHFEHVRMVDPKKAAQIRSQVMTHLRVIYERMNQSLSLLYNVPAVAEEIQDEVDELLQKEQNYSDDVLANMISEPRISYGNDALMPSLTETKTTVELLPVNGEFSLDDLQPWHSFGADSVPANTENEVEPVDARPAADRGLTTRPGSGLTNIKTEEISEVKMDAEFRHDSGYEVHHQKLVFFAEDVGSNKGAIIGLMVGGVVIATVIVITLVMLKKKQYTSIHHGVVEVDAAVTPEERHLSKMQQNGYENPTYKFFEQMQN

As for `COc1cc(/C=C/C(=O)CC(=O)/C=C/c2ccc(O)c(OC)c2)ccc1O`, the result in [1] was Active.

In the case of `NC(=O)N1c2ccccc2C=Cc2ccccc21` [CARBAMAZEPINE], the Papp (as a rule, a coefficient for how fast a substance crosses the barrier) at 4 h in data set [2] is 8.78 ×10⁻⁶ cm/s.

For the compound `COC(=O)[C@@H](CC(C)C)NC(=O)CCC(=O)O[C@H]1CC[C@]2(C)[C@H]3C[C@@H](O)[C@@H]4[C@@H]([C@@]5(C)CCCC(C)(C)O5)CC[C@@]4(C)[C@]3(C)CC[C@H]2C1(C)C`, the Activity in the data set with PC-12 [3] is given as 16.07%.

Regarding `COc1cc(/C=C/C(=O)O[C@H]2CC[C@]3(C)[C@H]4C[C@@H](O)[C@@H]5[C@@H]([C@@]6(C)CCCC(C)(C)O6)CC[C@@]5(C)[C@]4(C)CC[C@H]3C2(C)C)cc(OC)c1OC`, the Activity with PC-12 [3] is 36.23%.

Consider `CC1(C)CCC[C@](C)([C@H]2CC[C@]3(C)[C@@H]2[C@H](O)C[C@@H]2[C@@]4(C)CC[C@H](OC(=O)CN5CCOCC5)C(C)(C)[C@@H]4CC[C@]23C)O1.Cl`, for which, in the data set on PC-12 [3], the Activity was determined as 23.96%.

On to `CC1(C)CCC[C@](C)([C@H]2CC[C@]3(C)[C@@H]2[C@H](O)C[C@@H]2[C@@]4(C)CC[C@H](OC(=O)CN5CCCCC5)C(C)(C)[C@@H]4CC[C@]23C)O1.Cl`, for which the Activity in the data set with PC-12 [3] was found to be 12.66%.

Consider `CC1(C)CCC[C@](C)([C@H]2CC[C@]3(C)[C@@H]2[C@H](O)C[C@@H]2[C@@]4(C)CC[C@H](OC(=O)c5cn(-c6ccc([N+](=O)[O-])cc6)nn5)C(C)(C)[C@@H]4CC[C@]23C)O1`, for which, in the data set with PC-12 [3], the Activity is listed as 23.76%.

Regarding `CC1(C)CCC[C@](C)([C@H]2CC[C@]3(C)[C@@H]2[C@H](O)C[C@@H]2[C@@]4(C)CC[C@H](OC(=O)CN5CCN(Cc6ccccc6)CC5)C(C)(C)[C@@H]4CC[C@]23C)O1.Cl`, the Activity with PC-12 [3] stood at 37.37%.

For `CC1(C)CCC[C@](C)([C@H]2CC[C@]3(C)[C@@H]2[C@H](O)C[C@@H]2[C@@]4(C)CC[C@H](OC(=O)NC5CCCCC5)C(C)(C)[C@@H]4CC[C@]23C)O1`, the Activity in the data set on PC-12 [3] turned out to be 66.39%.

Regarding `CCNC(=O)O[C@H]1CC[C@]2(C)[C@H]3C[C@@H](O)[C@@H]4[C@@H]([C@@]5(C)CCCC(C)(C)O5)CC[C@@]4(C)[C@]3(C)CC[C@H]2C1(C)C`, in the data set on PC-12 [3], the Activity is given as 65.69%.

As to `CC1(C)CCC[C@](C)([C@H]2CC[C@]3(C)[C@@H]2[C@H](O)C[C@@H]2[C@@]4(C)CC[C@H](O)C(C)(C)[C@@H]4CC[C@]23C)O1` [PANAXADIOL], the result in the data set with PC-12 [4], in the data set with PC-12 [5] and with PC-12 [7] was Active. In addition, the Activity in the data set on PC-12 [6] stood at 5.4%.

As to `CC1(C)CCC[C@](C)([C@H]2CC[C@]3(C)[C@@H]2[C@H](O)C[C@@H]2[C@@]4(C)CC[C@H](OC(=O)Nc5ccccc5)C(C)(C)[C@@H]4CC[C@]23C)O1`, the Activity with PC-12 [3] was 71.32%.

For `CC1(C)CCC[C@](C)([C@H]2CC[C@]3(C)[C@@H]2[C@H](O)C[C@@H]2[C@@]4(C)CC[C@H](OC(=O)c5cn(-c6ccc(Cl)cc6)nn5)C(C)(C)[C@@H]4CC[C@]23C)O1`, the Activity in the data set on PC-12 [3] came out at 36.15%.

As for `CC1(C)CCC[C@](C)([C@H]2CC[C@]3(C)[C@@H]2[C@H](O)C[C@@H]2[C@@]4(C)CC[C@H](OC(=O)/C=C/c5ccc(N6CCOCC6)cc5)C(C)(C)[C@@H]4CC[C@]23C)O1`, in the data set on PC-12 [3], the Activity amounted to 32.75%.

As for `COc1cc2c(cc1OC)C(=O)C(CC1CCN(Cc3ccccc3)CC1)C2` (configuration not stated), the outcome in the data set on Mus musculus [8], in the data set on PC-12 [4], in the data set with Mus musculus [10], in the data set on Mus musculus [11], in the data set with Mus musculus [12] and in the data set on Mus musculus [13] was Active. Also, the result in the data set on PC-12 [7] was Active. Also, the result in the data set on Mus musculus [9], in the data set with Mus musculus [14] and in the data set on Mus musculus [15] was inactive.

For `COc1ccc(-n2cc(C(=O)O[C@H]3CC[C@]4(C)[C@H]5C[C@@H](O)[C@@H]6[C@@H]([C@@]7(C)CCCC(C)(C)O7)CC[C@@]6(C)[C@]5(C)CC[C@H]4C3(C)C)nn2)cc1`, the Activity in the data set on PC-12 [3] turned out to be 52.37%.

For `CC1(C)CCC[C@](C)([C@H]2CC[C@]3(C)[C@@H]2[C@H](O)C[C@@H]2[C@@]4(C)CC[C@H](OC(=O)/C=C/c5ccco5)C(C)(C)[C@@H]4CC[C@]23C)O1`, the Activity in the data set on PC-12 [3] was 40.56%.

Consider `COC(=O)[C@H](NC(=O)CCC(=O)O[C@H]1CC[C@]2(C)[C@H]3C[C@@H](O)[C@@H]4[C@@H]([C@@]5(C)CCCC(C)(C)O5)CC[C@@]4(C)[C@]3(C)CC[C@H]2C1(C)C)c1ccccc1`, for which the Activity in the data set on PC-12 [3] was determined as 22.85%.

Regarding `CC1(C)CCC[C@](C)([C@H]2CC[C@]3(C)[C@@H]2[C@H](O)C[C@@H]2[C@@]4(C)CC[C@H](OC(=O)c5cn(-c6ccccc6)nn5)C(C)(C)[C@@H]4CC[C@]23C)O1`, the Activity with PC-12 [3] is on record as 25.49%.

Consider `COc1ccc(NC(=O)O[C@H]2CC[C@]3(C)[C@H]4C[C@@H](O)[C@@H]5[C@@H]([C@@]6(C)CCCC(C)(C)O6)CC[C@@]5(C)[C@]4(C)CC[C@H]3C2(C)C)cc1`, for which the Activity in the data set on PC-12 [3] stood at 65.27%.
